Measurements: ChEMBL document CHEMBL5107987, “New naphtho/thienobenzo-triazoles with interconnected anti-inflammatory and cholinesterase inhibitory activity” (Eur J Med Chem, 2022)
pIC50: −log10 of the molar value.

How the values were obtained:
[1] = Cytotoxicity against human PBMC assessed as effect on cell viability measured by Cell Titer Glo assay; format: toxicity, cell-based
Cholinesterase = Cholinesterase (Equus caballus, UniProt P81908); experiment: Inhibition of equine serum BuChE using S-butyrylthiocholine iodide as substrate pre-incubated for 5 mins followed by substrate addition and measured after 6 mins by Ellman's method
Chain of Cholinesterase (P81908 whole entry): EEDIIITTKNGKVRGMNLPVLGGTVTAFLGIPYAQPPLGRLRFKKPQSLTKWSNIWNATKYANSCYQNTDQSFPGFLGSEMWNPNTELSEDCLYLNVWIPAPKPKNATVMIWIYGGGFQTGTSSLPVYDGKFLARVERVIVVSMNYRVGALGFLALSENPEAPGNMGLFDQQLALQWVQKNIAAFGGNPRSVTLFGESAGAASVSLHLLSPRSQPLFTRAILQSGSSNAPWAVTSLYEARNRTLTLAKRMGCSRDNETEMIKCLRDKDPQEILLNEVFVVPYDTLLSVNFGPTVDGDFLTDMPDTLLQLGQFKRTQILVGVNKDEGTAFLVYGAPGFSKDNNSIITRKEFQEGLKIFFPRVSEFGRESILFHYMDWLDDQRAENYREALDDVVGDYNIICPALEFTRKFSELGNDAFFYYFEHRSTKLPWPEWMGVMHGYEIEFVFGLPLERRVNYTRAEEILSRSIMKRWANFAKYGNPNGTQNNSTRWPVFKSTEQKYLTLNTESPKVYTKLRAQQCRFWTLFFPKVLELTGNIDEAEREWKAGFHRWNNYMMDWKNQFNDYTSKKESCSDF

[2] = Inhibition of TNF-alpha production in LPS-stimulated human PBMC measured after 24 hrs by ELISA; format: functional, cell-based
[3] = target: Cholinesterase (Equus caballus) (UniProt P81908); experiment: Inhibition of equine serum BuChE using S-butyrylthiocholine iodide as substrate pre-incubated for 5 mins followed by substrate addition at 500 uM and measured after 6 mins by Ellman's method relative to control
Chain of Cholinesterase (Equus caballus) (P81908 whole entry): as above

[4] = target: Acetylcholinesterase (Electrophorus electricus) (UniProt O42275); experiment: Inhibition of electric eel AChE using acetylthiocholine iodide as substrate pre-incubated for 5 mins followed by substrate addition at 500 uM and measured after 6 mins by Ellman's method relative to control
Chain of Acetylcholinesterase (Electrophorus electricus) (O42275 24-633 limits assumed): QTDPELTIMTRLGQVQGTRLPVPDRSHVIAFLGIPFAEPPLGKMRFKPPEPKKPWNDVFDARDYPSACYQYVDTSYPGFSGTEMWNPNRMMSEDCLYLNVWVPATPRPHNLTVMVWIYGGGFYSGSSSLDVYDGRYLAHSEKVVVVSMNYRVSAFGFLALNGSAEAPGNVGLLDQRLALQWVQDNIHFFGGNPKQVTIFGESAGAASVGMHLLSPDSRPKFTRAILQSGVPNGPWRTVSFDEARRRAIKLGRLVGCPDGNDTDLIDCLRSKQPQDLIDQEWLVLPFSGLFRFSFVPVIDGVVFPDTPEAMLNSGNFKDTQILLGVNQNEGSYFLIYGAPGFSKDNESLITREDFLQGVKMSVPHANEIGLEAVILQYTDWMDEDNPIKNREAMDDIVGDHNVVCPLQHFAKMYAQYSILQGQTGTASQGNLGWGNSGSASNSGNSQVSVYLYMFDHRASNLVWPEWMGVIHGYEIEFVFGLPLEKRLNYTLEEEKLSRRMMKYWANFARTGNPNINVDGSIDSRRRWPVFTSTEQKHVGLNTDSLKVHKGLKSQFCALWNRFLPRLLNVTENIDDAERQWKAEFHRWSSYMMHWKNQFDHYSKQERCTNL

Acetylcholinesterase = Acetylcholinesterase (Electrophorus electricus, UniProt O42275); experiment: Inhibition of electric eel AChE using acetylthiocholine iodide as substrate pre-incubated for 5 mins followed by substrate addition and measured after 6 mins by Ellman's method
Chain of Acetylcholinesterase (O42275 whole entry): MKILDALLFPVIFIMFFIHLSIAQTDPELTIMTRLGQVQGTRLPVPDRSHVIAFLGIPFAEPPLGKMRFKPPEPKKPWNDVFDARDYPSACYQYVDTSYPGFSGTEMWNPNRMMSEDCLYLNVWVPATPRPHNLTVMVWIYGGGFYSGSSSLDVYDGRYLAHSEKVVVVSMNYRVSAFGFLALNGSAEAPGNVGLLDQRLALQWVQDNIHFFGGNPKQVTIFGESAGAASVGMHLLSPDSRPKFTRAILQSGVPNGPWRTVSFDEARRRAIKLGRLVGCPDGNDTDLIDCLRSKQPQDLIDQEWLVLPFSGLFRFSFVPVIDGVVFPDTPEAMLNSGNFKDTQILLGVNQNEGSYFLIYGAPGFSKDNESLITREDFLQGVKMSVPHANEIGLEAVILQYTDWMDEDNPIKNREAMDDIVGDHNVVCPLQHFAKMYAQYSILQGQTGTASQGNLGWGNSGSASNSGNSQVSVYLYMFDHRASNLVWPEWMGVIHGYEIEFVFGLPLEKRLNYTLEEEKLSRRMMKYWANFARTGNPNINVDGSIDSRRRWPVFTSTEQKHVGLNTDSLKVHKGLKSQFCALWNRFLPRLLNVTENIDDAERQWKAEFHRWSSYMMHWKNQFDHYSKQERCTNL

[5] = target: Acetylcholinesterase (Electrophorus electricus) (UniProt O42275); experiment: Inhibition of electric eel AChE using acetylthiocholine iodide as substrate pre-incubated for 5 mins followed by substrate addition at 100 uM and measured after 6 mins by Ellman's method relative to control
[6] = target: Cholinesterase (Equus caballus) (UniProt P81908); experiment: Inhibition of equine serum BuChE using S-butyrylthiocholine iodide as substrate pre-incubated for 5 mins followed by substrate addition at 100 uM and measured after 6 mins by Ellman's method relative to control
[7] = Inhibition of TNF-alpha production in LPS-stimulated human PBMC measured after 24 hrs by ELISA relative to control; format: functional
[8] = target: Acetylcholinesterase (Electrophorus electricus) (UniProt O42275); experiment: Inhibition of electric eel AChE using acetylthiocholine iodide as substrate pre-incubated for 5 mins followed by substrate addition at 1000 uM and measured after 6 mins by Ellman's method relative to control
[9] = target: Cholinesterase (Equus caballus) (UniProt P81908); experiment: Inhibition of equine serum BuChE using S-butyrylthiocholine iodide as substrate pre-incubated for 5 mins followed by substrate addition at 200 uM and measured after 6 mins by Ellman's method relative to control
[10] = target: Cholinesterase (Equus caballus) (UniProt P81908); experiment: Inhibition of equine serum BuChE using S-butyrylthiocholine iodide as substrate pre-incubated for 5 mins followed by substrate addition at 800 uM and measured after 6 mins by Ellman's method relative to control
[11] = target: Acetylcholinesterase (Electrophorus electricus) (UniProt O42275); experiment: Inhibition of electric eel AChE using acetylthiocholine iodide as substrate pre-incubated for 5 mins followed by substrate addition at 800 uM and measured after 6 mins by Ellman's method relative to control
[12] = target: Cholinesterase (Equus caballus) (UniProt P81908); experiment: Inhibition of equine serum BuChE using S-butyrylthiocholine iodide as substrate pre-incubated for 5 mins followed by substrate addition at 250 uM and measured after 6 mins by Ellman's method relative to control
[13] = target: Cholinesterase (Equus caballus) (UniProt P81908); experiment: Inhibition of equine serum BuChE using S-butyrylthiocholine iodide as substrate pre-incubated for 5 mins followed by substrate addition at 50 uM and measured after 6 mins by Ellman's method relative to control

Question: Which Activity [1] does the source give for `C(=C/c1cccs1)/c1cn(CCc2cc3ccccc3[nH]2)nn1` here?
Answer: Non-Toxic

Question: And the pIC50 (Cholinesterase)?
Answer: 3.63

Question: And the pIC50 [2]?
Answer: < 4.48

Question: And the inhibition [3]?
Answer: 59.5%

Question: And the inhibition [4]?
Answer: 67.4%

Question: And the pIC50 (Acetylcholinesterase)?
Answer: 3.22

Question: Which Activity [1] does the source give for `C=CCn1cc(/C=C/c2cccs2)nn1` here?
Answer: Non-Toxic

Question: And the pIC50 [2]?
Answer: < 4.48

Question: Which inhibition [5] does the source give for `O=[N+]([O-])c1ccc(-n2cc(/C=C\c3cccs3)nn2)cc1` here?
Answer: 34.1%

Question: And the inhibition [6]?
Answer: 12.3%

Question: Which results are given for `c1ccc2[nH]c(CCn3nnc4ccc5sccc5c43)cc2c1`?
Answer: Activity [1]: Non-Toxic; inhibition (INH) [7]: <50%

Question: What does the source list for `COc1ccc2ccc3nnn(CCCCO)c3c2c1`?
Answer: Activity [1]: Non-Toxic; pIC50 [2]: 5.10

Question: For `COc1ccc(Cn2cc(/C=C/c3ccccc3C#N)nn2)cc1`, which Activity [1] is on record?
Answer: Non-Toxic

Question: What about the pIC50 [2] of the same compound?
Answer: < 4.48

Question: With `COc1ccc(Cn2nnc3ccc4cccc(C#N)c4c32)cc1` as the compound, how does the “inhibition (INH)” value [7] read?
Answer: <50%

Question: Which “inhibition (INH)” value [7] does the source give for `CC(C)n1nnc2ccc3ccccc3c21` here?
Answer: <50%

Question: For `CCCn1nnc2ccc3sccc3c21`, which inhibition [8] is on record?
Answer: 56.2%

Question: And the inhibition [9]?
Answer: 91.7%

Question: And the “inhibition (INH)” value [7]?
Answer: <50%

Question: For `CCCn1cc(/C=C\c2cccs2)nn1`, which Activity [1] is on record?
Answer: Non-Toxic

Question: What about the pIC50 (Cholinesterase) of the same compound?
Answer: 4.02

Question: What about the inhibition [8] of the same compound?
Answer: 21.9%

Question: And the pIC50 [2]?
Answer: < 4.48

Question: And the inhibition [9]?
Answer: 66.1%

Question: For `C=CCn1cc(/C=C\c2cccs2)nn1`, which Activity [1] is on record?
Answer: Non-Toxic

Question: What about the pIC50 [2] of the same compound?
Answer: < 4.48

Question: With `O=[N+]([O-])c1ccc(-n2nnc3ccc4sccc4c32)cc1` as the compound, how does the pIC50 (Cholinesterase) read?
Answer: 3.35

Question: What about the inhibition [3] of the same compound?
Answer: 53.4%

Question: What about the inhibition [4] of the same compound?
Answer: 43.3%

Question: What about the “inhibition (INH)” value [7] of the same compound?
Answer: <50%

Question: What does the source list for `OCCCCn1cc(/C=C\c2cccs2)nn1`?
Answer: inhibition [10]: 48.7%; inhibition [11]: 45.2%

Question: With `C[C@@H]1C[C@H]2[C@@H]3CCC4=CC(=O)C=C[C@]4(C)[C@@]3(F)[C@@H](O)C[C@]2(C)[C@@]1(O)C(=O)CO` [DEXAMETHASONE] as the compound, how does the pIC50 [2] read?
Answer: 8.44

Question: For `COc1ccc(Cn2nnc3ccc4ccc(OC)cc4c32)cc1`, which Activity [1] is on record?
Answer: Non-Toxic

Question: And the pIC50 [2]?
Answer: 5.66

Question: Which Activity [1] does the source give for `CCCn1cc(/C=C/c2cccs2)nn1` here?
Answer: Non-Toxic

Question: What about the pIC50 [2] of the same compound?
Answer: < 4.48

Question: What about the inhibition [4] of the same compound?
Answer: 36.9%

Question: What about the inhibition [12] of the same compound?
Answer: 79.2%

Question: With `C=CCn1nnc2ccc3sccc3c21` as the compound, how does the Activity [1] read?
Answer: Non-Toxic

Question: And the pIC50 (Cholinesterase)?
Answer: 5.42

Question: And the pIC50 [2]?
Answer: 4.56

Question: And the inhibition [13]?
Answer: 80%

Question: What about the inhibition [4] of the same compound?
Answer: 76.9%

Question: What about the pIC50 (Acetylcholinesterase) of the same compound?
Answer: 4.25

Question: What does the source list for `CC(c1ccccc1)n1cc(/C=C\c2cccs2)nn1` (stereo not drawn)?
Answer: Activity [1]: Non-Toxic; pIC50 [2]: < 4.48

Question: For `COc1ccc(Cn2cc(/C=C\c3ccccc3C#N)nn2)cc1`, which Activity [1] is on record?
Answer: Non-Toxic

Question: And the pIC50 [2]?
Answer: < 4.48

Question: Which Activity [1] does the source give for `CC(C)n1nnc2ccc3ccc(Cl)cc3c21` here?
Answer: Non-Toxic

Question: And the pIC50 [2]?
Answer: 4.65
